Source: patent US10844017B2, “Biaryl compound, preparation method and use thereof” (FUDAN UNIVERSITY, priority 2017, dated 2020)

Key:
[1] = system: Mouse lymphoma EL4 cells transfected with RORγt plasmid; assay: Determination of the activation rate on mouse lymphoma EL4 (IL-17 generation); format: cell-based; conditions: compound at 2 μM, 24 hours, PMA/ionomycin stimulation 4 hours, flow cytometry, read-out: +act % (activation of IL-17 generated by EL4 cells)
Description: Determination of the Activation Rate on Mouse Lymphoma EL4
Mouse lymphoma EL4 cells transfected with RORγt plasmid were cultured at 37° C. under an atmosphere with 5% CO2, with a test compound added simultaneously. After 24 hours, the generation efficiency of IL-17A was analyzed. Before collection of cells, PMA at 50 ng/mL and ionomycin at 500 ng/mL were added for stimulation for 4 hours. The proportion of IL-17 was detected by intracellular staining and flow cytometry. […] The activation rate of IL-17 generated by EL4 cells for the compound was measured at a concentration of 2 μM.

[2] = molecular target: T1, RORγ receptor (B-RORγ LBD / Bioin-SRC1) (Homo sapiens, UniProt P51449); assay: Determination of agonistic activities on RORγ receptors in vitro (dual FRET); format: biochemical; conditions: average of at least two independent experiments
T1 construct: 40 nM B-RORγ LBD solution
T1 sequence (P51449 269-508 limits assumed): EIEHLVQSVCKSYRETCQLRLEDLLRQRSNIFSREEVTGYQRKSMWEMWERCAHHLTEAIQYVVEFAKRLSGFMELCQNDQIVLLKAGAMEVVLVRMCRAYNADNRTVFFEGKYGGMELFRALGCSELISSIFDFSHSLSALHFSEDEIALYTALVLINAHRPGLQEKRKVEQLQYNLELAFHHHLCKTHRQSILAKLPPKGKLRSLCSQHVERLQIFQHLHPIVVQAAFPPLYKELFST
T1 sequence (Q15788 676-700 partner limits assumed): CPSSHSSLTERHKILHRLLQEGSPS
Description: Determination of Agonistic Activities of Compounds on RORγ Receptors In Vitro The agonistic activities of compounds described herein on RORγ receptor were determined by dual fluorescence resonance energy transfer (dual FRET) experiments. The agonistic activity was expressed by half maximum effect concentration (EC50).
1) Preparation of RORγ Assay Buffer
100 mL of buffer solution was well mixed with […] DTT for use.
2) Preparation of Solutions of Compounds
3) Preparation of protein mixtures a) 40 nM B-RORγ LBD solution was mixed well with 20 nM SA-APC solution and incubated for 15 minutes at room temperature. Then the resulting mixture was further mixed well with 400 nM Biotin and incubated for another 10 minutes at room temperature. […]
b) 40 nM Bioin-SRC1 solution was mixed well with 10 nM SA-eu solution and was incubated for 15 minutes at room temperature. Then the resulting mixture was further mixed well with 200 nM Biotin and was incubated for another 10 minutes at room temperature. […]
d) A mixture (25 μL) of B-RORγ LBD/SA-APC and Bioin-SRC1/SA-eu together with a test compound was added to one of the wells of a 384-well plate, and then the plate was centrifuged for one minute at 1000 rpm, and incubated at room temperature for one hour. The data were read on an Envision microplate detector and EC50 values were calculated.

[3] = system: Mouse spleen CD4+T cells differentiated into Th17 cells; assay: Mouse Th17 cell differentiation, half-maximal effect concentration; format: cell-based; conditions: 96 hours, proportion of IL-17 by intracellular staining and flow cytometry
Description: Determination of the Half-Maximal Effect Concentration of Mouse Th17 Cell Differentiation
Experimental methods: Mouse spleen CD4^+T cells were separated and differentiated into Th17 cells. CD4^+T cells were cultured in the environment containing anti-CD3 (0.25 μg/mL), anti-CD28 (1 μg/mL), anti-IL4 (2 μg/mL), anti-IFN-γ (2 μg/mL), TGF-β (5 ng/mL), and IL6 (20 ng/mL), with a test compound added at the same time. After 96 hours, the differentiation efficiency of Th17 was analyzed. Before collection of cells, PMA at 50 ng/mL and ionomycin at 500 ng/mL were added for stimulation for 4 hours, and the proportion of IL-17 was detected by intracellular staining and flow cytometry. Meanwhile, we used Live/Dead Cell Dye (Invitrogen) staining method to analyze the cell survival rate and to judge whether the drug had toxicity to cells, and determined the half-maximal effect concentration EC50 of the compounds.

| Compound | EC50 [2] [nM] | activation at 2 µM [1] [%] | EC50 [3] [nM] |
| --- | --- | --- | --- |
| CCS(=O)(=O)c1ccc(CNC(=O)Nc2cc(Cl)c(-c3ccc(CC(C)C)c(C#N)c3)c(Cl)c2)cc1 [Example 53, 1-(2,6-Dichloro-3′-cyano-4′-isobutyl-[1,1′-biphenyl]-4-yl)-3-(4-(ethylsulfonyl)benzyl)urea] |  | 20 to 50 |  |
| CC(C)Cc1ccc(-c2c(Cl)cc(NC(=O)CC3CCCCC3)cc2Cl)cc1C#N [Example 5, (2-Cyclohexyl-N-(2,6-dichloro-3′-cyano-4′-isobutyl-[1,1′-biphenyl]-4-yl)acetamide)] | 10 to 50 | < 20 |  |
| CCS(=O)(=O)c1ccc(CC(=O)Nc2cc(Cl)c(-c3ccc(C=C(C)C)c(C#N)c3)c(Cl)c2)cc1 [Example 40, N-(2,6-Dichloro-3′-cyano-4′-(2-methylprop-1-en-1-yl)-[1,1′-biphenyl]-4-yl)-2-(4-(ethylsulfonyl)phenyl)acetamide] |  | > 50 |  |
| CC(C)Cc1ccc(-c2c(Cl)cc(NC(=O)Cc3ccccc3C#N)cc2Cl)cc1C#N [Example 11, 2-(2-Cyanophenyl)-N-(2,6-dichloro-3′-cyano-4′-isobutyl-[1,1′-biphenyl]-4-yl)acetamide] | 10 to 50 | < 20 |  |
| CC(C)Cc1ccc(-c2c(Cl)cc(NC(=O)Cc3ccc(C(=O)O)cc3)cc2Cl)cc1C#N [Example 24, 4-(2-((2,6-Dichloro-3′-cyano-4′-isobutyl-[1,1′-biphenyl]-4-yl)amino)-2-oxoethyl)benzoic acid] | < 10 | < 20 |  |
| CCS(=O)(=O)c1ccc(CC(=O)Nc2cc(Cl)c(-c3ccc(CC4CCC4)c(C#N)c3)c(Cl)c2)cc1 [Example 43, (N-(2,6-Dichloro-3′-cyano-4′-(cyclobutylmethyl)-[1,1′-biphenyl]-4-yl)-2-(4-(ethylsulfonyl)phenyl)acetamide)] |  |  | 50 to 150 |
| CCS(=O)(=O)c1ccc(CC(=O)Nc2cc(Cl)c(-c3ccc(CC(C)C)cc3)c(Cl)c2)cc1 [Example 26, N-(2,6-Dichloro-4′-isobutyl-[1,1′-biphenyl]-4-yl)-2-(4-(ethylsulfonyl)phenyl)acetamide] | 10 to 50 | < 20 |  |
| CCS(=O)(=O)c1ccc(CNC(=O)Nc2cc(Cl)c(-c3ccc(CC(C)C)c(C#N)c3)c(Cl)c2)nc1 [Example 55, 1-(2,6-Dichloro-3′-cyano-4′-isobutyl-[1,1′-biphenyl]-4-yl)-3-((5-(ethylsulfonyl)pyridin-2-yl)methyl)urea] | 10 to 50 | 20 to 50 |  |
| CCS(=O)(=O)c1ccc(CC(=O)Nc2cc(Cl)c(-c3ccc(CN(C)C)c(C#N)c3)c(Cl)c2)cc1 [Example 35, N-(2,6-Dichloro-3′-cyano-4′-((dimethylamino)methyl)-[1,1′-biphenyl]-4-yl)-2-(4-(ethylsulfonyl)phenyl)acetamide] |  | > 50 |  |
| CC(C)Cc1ccc(-c2c(Cl)cc(NC(=O)Cc3ccn(C)n3)cc2Cl)cc1C#N [Example 9A, N-(2,6-Dichloro-3′-cyano-4′-isobutyl-[1,1′-biphenyl]-4-yl)-2-(1-methyl-1H-pyrazol-3-yl)acetamide] | 10 to 50 | < 20 |  |
| CCC(C)Cc1ccc(-c2c(Cl)cc(NC(=O)Cc3ccc(S(=O)(=O)CC)cc3)cc2Cl)cc1C#N (centres unmarked) [Example 41, N-(2,6-Dichloro-3′-cyano-4′-(2-methylbutyl)-[1,1′-biphenyl]-4-yl)-2-(4-(ethylsulfonyl)phenyl)acetamide] |  |  | > 150 |
| CCS(=O)(=O)c1ccc(CC(=O)Nc2cc(Cl)c(-c3ccc(OC(C)C)c(C#N)c3)c(Cl)c2)cc1 [Example 32, N-(2,6-Dichloro-3′-cyano-4′-isopropoxy-[1,1′-biphenyl]-4-yl)-2-(4-(ethylsulfonyl)phenyl)acetamide] |  |  | < 50 |
| CCS(=O)(=O)c1ccc(CNC(=O)c2cc(Cl)c(-c3ccc(CC(C)C)c(C#N)c3)c(Cl)c2)cc1 [Example 47] |  | < 20 |  |
| CC(C)Cc1ccc(-c2c(Cl)cc(NC(=O)Cc3cccc(S(C)(=O)=O)c3)cc2Cl)cc1C#N [Example 18, N-(2,6-Dichloro-3′-cyano-4′-isobutyl-[1,1′-biphenyl]-4-yl)-2-(3-(methylsulfonyl)phenyl)acetamide] | 10 to 50 |  |  |
| CC(C)Cc1ccc(-c2c(Cl)cc(NC(=O)NCc3ccc(S(C)(=O)=O)cc3)cc2Cl)cc1C#N [Example 54, 1-(2,6-Dichloro-3′-cyano-4′-isobutyl-[1,1′-biphenyl]-4-yl)-3-(4-(methylsulfonyl)benzyl)urea] | 10 to 50 |  |  |

Second part, led by results:

| EC50 [2] [nM] | Compound | activation at 2 µM [1] [%] | EC50 [3] [nM] |
| --- | --- | --- | --- |
| 10 to 50 | CN(C)Cc1ccc(-c2c(Cl)cc(NC(=O)Cc3ccc(S(C)(=O)=O)cc3)cc2Cl)cc1C#N [Example 34, N-(2,6-Dichloro-3′-cyano-4′-((dimethylamino)methyl)-[1,1′-biphenyl]-4-yl)-2-(4-(methylsulfonyl)phenyl)acetamide] | > 50 |  |
| 10 to 50 | CC(C)Cc1ccc(-c2c(Cl)cc(NC(=O)Cc3ccccn3)cc2Cl)cc1C#N [Example 13, N-(2,6-Dichloro-3′-cyano-4′-isobutyl-[1,1′-biphenyl]-4-yl)-2-(pyridin-2-yl)acetamide] | < 20 |  |
| 10 to 50 | CCS(=O)(=O)c1ccc(CNC(=O)Nc2cc(Cl)c(-c3ccc(CN(C)C)c(C#N)c3)c(Cl)c2)cc1 [Example 58, 1-(2,6-Dichloro-3′-cyano-4′-((dimethylamino)methyl)-[1,1′-biphenyl]-4-yl)-3-(4-(ethylsulfonyl)benzyl)urea] | 20 to 50 |  |
| 10 to 50 | CCN(CC)Cc1ccc(-c2c(Cl)cc(NC(=O)Cc3ccc(S(=O)(=O)CC)cc3)cc2Cl)cc1C#N [Example 37, N-(2,6-Dichloro-3′-cyano-4′-((diethylamino)methyl)-[1,1′-biphenyl]-4-yl)-2-(4-(ethylsulfonyl)phenyl)acetamide] | 20 to 50 |  |
| 10 to 50 | CC(C)Cc1ccc(-c2c(Cl)cc(NC(=O)CC3CCOCC3)cc2Cl)cc1C#N [Example 6, N-(2,6-Dichloro-3′-cyano-4′-isobutyl-[1,1′-biphenyl]-4-yl)-2-(tetrahydro-2H-pyran-4-yl) acetamide] | 20 to 50 |  |
| 50 to 100 | CCS(=O)(=O)c1ccc(CNC(=O)c2cc(Cl)c(-c3ccc(CC(C)C)c(C#N)c3)c(Cl)c2)nc1 [Example 49, 2,6-Dichloro-3′-cyano-N-((5-(ethylsulfonyl)pyridin-2-yl)methyl)-4′-isobutyl-[1,1′-biphenyl]-4-carboxamide] | < 20 |  |
| 10 to 50 | CC(C)Cc1ccc(-c2c(Cl)cc(NC(=O)C3CCCCC3)cc2Cl)cc1C#N [Example 2, N-(2,6-Dichloro-3′-cyano-4′-isobutyl-[1,1′-biphenyl]-4-yl)cyclohexanecarboxamide] | 20 to 50 |  |
| < 10 | CCS(=O)(=O)c1ccc(CCNc2cc(Cl)c(-c3ccc(CN(C)C)c(C#N)c3)c(Cl)c2)cc1 [Example 62, 2′,6′-Dichloro-4-((dimethylamino)methyl)-4′((4-(ethylsulfonyl)phenethyl)amino)-[1,1′-biphenyl]-3-carbonitrile] | 20 to 50 |  |
| 10 to 50 | CCS(=O)(=O)c1ccc(CCNc2cc(Cl)c(-c3ccc(CC(C)C)c(C#N)c3)c(Cl)c2)cc1 [Example 60, 2′,6′-Dichloro-4′-((4-(ethylsulfonyl)phenethyl)amino)-4-isobutyl-[1,1′-biphenyl]-3-carbonitrile] | 20 to 50 |  |
| 10 to 50 | CCN(CC)Cc1ccc(-c2c(Cl)cc(NC(=O)Cc3ccc(S(C)(=O)=O)cc3)cc2Cl)cc1C#N [Example 33, N-(2,6-Dichloro-3′-cyano-4′-((diethylamino)methyl)-[1,1′-biphenyl]-4-yl)-2-(4-(methylsulfonyl)phenyl)acetamide] | 20 to 50 |  |
